Tests used:
Assay type in all cases: in vivo, human
[1] = tested on: men with prostate cancer receiving ADT; assay: Clinical study: lower extremity strength (1-RM knee extension) and SPPB; set-up: End of Study SPPB-Total Score, Mean / End of Study SPPB-Total Score, Median / Change from Baseline to End of Study SPPB-Total Score, Mean / Change from Baseline to End of Study SPPB-Total Score, Median / Follow-up SPPB-Total Score, Mean / Follow-up SPPB-Total Score, Median: scale not given here
Procedure: Lower extremity strength was assessed on the basis of maximum weight lifted for one repetition (1-RM) using a knee extension machine. This assessment was performed within 2 weeks prior to and/or up to Day 2, on Day 29, and at a 1 month follow-up visit.
Short Physical Performance Battery (SPPB) was conducted within 2 weeks prior to and/or up to Day 1, on Day 29, and at the 1 month follow-up visit. The SPPB included an assessment of standing balance, timed walk test, and five repetitions of chair stand.

[2] = tested on: men with prostate cancer receiving ADT; assay: Clinical study: pharmacodynamics (DXA lean and fat mass, CT lower extremity muscle size)
Procedure: Eligible subjects were men with a documented history of prostate cancer; no documented distant metastasis at time of enrollment; received ADT (androgen deprivation therapy) for at least 6 months as a primary, adjuvant, or salvage treatment for prostate cancer prior to enrollment; if ADT was being administered intermittently, serum total testosterone level <50 ng/dL at screening; a stable prostate-specific antigen (PSA) as determined by the investigator; no history of primary muscle disease, myopathy, or neuropathy; weight ≦137 kg (300 lbs) and height ≦78 inches; Eastern Cooperative Oncology Group (ECOG) performance status of 0 at screening; no clinically significant elevated creatine phosphokinase (CPK); glomerular filtration rate (GFR) >40 mL/min; aspartate aminotransferase (AST) or alanine aminotransferase (ALT)<2.5× upper limit of normal.
This planned enrollment assumed a between treatment group difference of 1.5% for the secondary endpoint, percent change in lean body mass from baseline to week 5 (standard deviation of 2.1; Smith et al. 2001), and provided 80% power for a 1-sided test at the 10% significance level. An analysis of variance (ANOVA) was used to compare percent change from baseline between treatment groups (3 mg/kg AMG 745 versus placebo).
Analyses of the pharmacodynamic effects were limited to the 3-mg/kg dose cohort and the study was designed to have 80% power to detect a statistically significant between-treatment-group difference in percent change in lean body mass.

[3] = tested on: anti-AMG 745 (whole molecule) binding antibodies; assay: Clinical study: anti-AMG 745 binding antibody immunoassays; details: subjects who received AMG 745 (1/31)
Procedure: For the 54 subjects who completed the study serum samples were analysed by surface-plasmon-resonance-based biosensor immunoassays for anti-AMG 745 (whole molecule) binding antibodies. Samples from 2 subjects gave positive results in 1 or more of the immunoassays: […]

[4] = 0.3 mg/kg SC 4-Week Dosing (N = 6)
[5] = 1.0 mg/kg SC 4-Week Dosing (N = 6)
[6] = 3.0 mg/kg SC 4-Week Dosing (N = 19)
[7] = 3 mg/kg, baseline to EOS (day 29)
[8] = 3 mg/kg, baseline to follow-up visit
[9] = CT scan, least squares mean (SE)
[10] = DXA scan, ad hoc analysis, least squares mean (SE)
[11] = lean body mass minus the head, DXA scan, least squares mean (SE)

Substance: AMG 745: anti-myostatin peptibody: human IgG1 Fc fused at C-terminus via GGGGGAQ linker to peptide SEQ ID NO:311; chain SEQ ID NO:635
- End of Study SPPB-Total Score, Mean [1, 4]: 11.00
- End of Study SPPB-Total Score, Median [1, 4]: 11.00
- Follow-up SPPB-Total Score, Mean [1, 4]: 11.00
- Follow-up SPPB-Total Score, Median [1, 4]: 11.00
- Change from Baseline to End of Study SPPB-Total Score, Mean [1, 5]: 1.50
- Change from Baseline to End of Study SPPB-Total Score, Median [1, 5]: 1.50
- End of Study SPPB-Total Score, Mean [1, 5]: 10.33
- End of Study SPPB-Total Score, Median [1, 5]: 10.00
- Follow-up SPPB-Total Score, Mean [1, 5]: 9.50
- Follow-up SPPB-Total Score, Median [1, 5]: 9.00
- Change from Baseline to End of Study SPPB-Total Score, Mean [1, 6]: 0.37
- Change from Baseline to End of Study SPPB-Total Score, Median [1, 6]: 0.00
- End of Study SPPB-Total Score, Mean [1, 6]: 10.53
- End of Study SPPB-Total Score, Median [1, 6]: 11.00
- Follow-up SPPB-Total Score, Mean [1, 6]: 10.68
- Follow-up SPPB-Total Score, Median [1, 6]: 11.00
- Change from Baseline to End of Study SPPB-Total Score, Mean ([1]; All AMG 745 Subjects (N = 31)): 0.65
- Change from Baseline to End of Study SPPB-Total Score, Median ([1]; All AMG 745 Subjects (N = 31)): 1.00
- End of Study SPPB-Total Score, Mean ([1]; All AMG 745 Subjects (N = 31)): 10.58
- End of Study SPPB-Total Score, Median ([1]; All AMG 745 Subjects (N = 31)): 11.00
- Follow-up SPPB-Total Score, Mean ([1]; All AMG 745 Subjects (N = 31)): 10.52
- Follow-up SPPB-Total Score, Median ([1]; All AMG 745 Subjects (N = 31)): 11.00
- SPPB or 1-RM knee extension, changes from baseline ([1]; four doses, no statistical analyses): effects were not apparent
- percent change in lean body mass, least squares mean (SE) ([2]; 3 mg/kg weekly ×4, baseline to EOS (day 29)): 1.5% (0.5%)
- lower extremity muscle size percent change [2, 7]: 1.2% (0.7%)
- percent change in fat body mass [2, 7]: −0.7% (0.2%)
- fat body mass, between-group difference vs placebo ([2]; 3 mg/kg, baseline to EOS (day 29), p=0.005): −1.0% (0.3%)
- lower extremity muscle size, between-group difference vs placebo ([2]; 3 mg/kg, baseline to EOS (day 29), p=0.065): 1.8% (1.0%)
- lower extremity muscle size percent change [2, 8]: 2.7% (0.7%)
- percent change in fat body mass [2, 8]: −0.8% (0.3%)
- lower extremity muscle size, between-group difference vs placebo ([2]; 3 mg/kg, baseline to follow-up visit, p=0.007): 2.8% (1.0%)
- percent change in lean body mass, least squares mean (SE) ([2]; 3 mg/kg, follow-up visit 1 month after day 29): 1.9% (0.5%)
- Lower-extremity Muscle Size, Between-group difference in percent change, Baseline to Follow-up Visit [Day 58] ([2]; AMG 745 vs placebo, CT, least squares mean (SE), p value 0.007): 2.8% (1.0%)
- Lower-extremity Muscle Size, Between-group difference in percent change, Baseline to EOS [Day 29] ([2]; AMG 745 vs placebo, CT, least squares mean (SE), p value 0.065): 1.8% (1.0%)
- Whole Body Fat, Between-group difference in percent change, Baseline to EOS [Day 29] ([2]; AMG 745 vs placebo, DXA, ad hoc, least squares mean (SE), p value 0.005): −1.0% (0.3%)
- Whole Body Fat, Between-group difference in percent change, Baseline to Follow-up Visit [Day 58] ([2]; AMG 745 vs placebo, DXA, ad hoc, least squares mean (SE), p value 0.068): −0.7% (0.4%)
- Lean Body Mass, Between-group difference in percent change, Baseline to EOS [Day 29] ([2]; AMG 745 vs placebo, DXA, least squares mean (SE), p value 0.008): 2.2% (0.8%)
- Lean Body Mass, Between-group difference in percent change, Baseline to Follow-up Visit [Day 58] ([2]; AMG 745 vs placebo, DXA, least squares mean (SE), p value 0.023): 1.7% (0.7%)
- Lower-extremity Muscle Size, Percent Change From Baseline to EOS [Day 29] [2, 9]: 1.2% (0.7%)
- Lower-extremity Muscle Size, Percent Change From Baseline to Follow-up Visit [Day 58] [2, 9]: 2.7% (0.7%)
- Whole Body Fat, Percent Change From Baseline to EOS [Day 29] [2, 10]: −0.7% (0.2%)
- Whole Body Fat, Percent Change From Baseline to Follow-up Visit [Day 58] [2, 10]: −0.8% (0.3%)
- Lean Body Mass, Percent Change From Baseline to EOS [Day 29] [2, 11]: 1.5% (0.5%)
- Lean Body Mass, Percent Change From Baseline to Follow-up Visit [Day 58] [2, 11]: 1.9% (0.5%)
- incidence of anti-AMG 745 (whole molecule) binding antibodies [3]: 3%
